Experimental data published in publication PMC8706998, “Lipid Nanocarriers-Loaded Nanocomposite as a Suitable Platform to Release Antibacterial and Antioxidant Agents for Immediate Dental Implant Placement Restorative Treatment” (Pharmaceutics, 2021).
Where “and” joins values, the source holds several entries; their conditions need not be identical. Equal entries are not always repeated.

Experiments:
[1] = QRC and CPX solubility studies in aqueous media; format: physicochemical; settings: for solubility at 120 min: 37 °C, pH 5.5, aqueous with cosolvent or surfactant or cyclodextrin, thermodynamic from solid, 37 ± 0.5 °C
Description: QRC, in excess, was added to each medium (1 mL) until precipitation occurred. […] The solubility tests were performed in triplicate. Results are reported as means ± SE.

[2] = Screening of the liquid lipids: visual evaluation of QRC dissolution (5% w/w); format: physicochemical; settings: QRC 5% w/w (5:95)
Description: Labrasol®, Capryol PGMC®, Plurol®, Maisine®, Labrafil® M 1944 CS, and PEG-18 G/C were selected as liquid lipids to evaluate their ability to completely dissolve the desired amount of QRC (5% w/w). Briefly, 50 mg of QRC was added to 950 mg of each lipid. Each mixture was then ultrasonicated (Emerson Branson 1200, Branson, Brookfield, USA) for 15 min, allowing QRC powder disaggregation. Then, mixtures were maintained under magnetic stirring (200 rpm) and kept in a silicone thermostatic bath heated up to 60 °C (Heidolph MR3001K, Schwabach, Germany) for 30 min. After cooling at room temperature, samples were evaluated in terms of appearance and clearness.

[3] = QRC release study, modified transwell support with 1-octanol acceptor; format: physicochemical; settings: QRC release from BioQ-CPX, data up to 30 h
Description: QRC release studies were carried out using a modified transwell permeable support (0.45 µm) filled with 5 mg of the BioQ-CPX powder and soaked with 0.2 mL of citrate buffer pH 5.5. The entire system was dipped inside a beaker filled with 8 mL of 1-octanol as a suitable acceptor fluid. […] The experiments were carried out at 37 ± 0.5 °C under constant stirring and protected by light exposure while, immediately after sampling, opportune volumes of fresh acceptor fluid were added to maintain the sink conditions. Data are reported as means ± SE (n = 6). Drug release profiles were elaborated using OriginPro 8.5 software and fitted with semi-empirical model equations. Fittings were validated by using R^2 value where a p-value of less than 0.05 was considered statistically significant.

[4] = QRC stability assay in aqueous environments (UV-Vis absorbance at 360 nm); format: physicochemical; settings: for decrease of absorbance ratio at 360 nm: QRC 0.01 mg/mL, room temperature, after 6 h
Description: QRC degradation rate was investigated in: (i) PBS pH 7.4 containing 10% v/v of DMSO (solvent A) and (ii) citrate buffer pH 5.5 solution amended with either 10% v/v of DMSO (solvent B) or 10% v/v of DMSO and 0.002% w/v of ACys (solvent C). The prepared QRC aqueous solutions (0.01 mg/mL) were kept at room temperature for 6 h in quartz cuvette located in the UV–Vis spectrophotometer (Shimadzu 1700 instrument, Kyoto, Japan). At scheduled time intervals (10 min), QRC spectra were recorded (from 200 to 700 nm) to highlight any changes in terms of sharp and absorption peaks. Results were reported as absorbance variation at lambda max (360 nm) over time according to the following equation: Abs variation %=Abstn/Abst0×100 where Abst0 and Abstn are the QRC absorbance recorded initially and at each time point, respectively. The stability assays were performed in triplicate. Results are reported as means ± SE.

[5] = design: method as in doi:10.1016/j.jfoodeng.2010.04.001; settings: Water pH 7; cited from earlier work
[6] = DPPH antioxidant assay; format: biochemical; settings: 0.08-0.01 mg/mL
Description: To evaluate the antioxidant activity of BioQ-CPX, the 2,2-diphenyl-1-picrylhydrazyl (DPPH) assay was performed. […] A measure of 0.5 mL of nanocomposite solution was transferred in polystyrene cuvette, added to 2.5 mL of DPPH ethanol solution (0.0295 mg/mL), and preserved by light exposure using foil. At determined time intervals (0, 0.25, 1, and 2 h), the DPPH concentration was measured spectrophotometrically at room temperature by observing the spectral range 400-800 nm and selecting λmax = 515 nm for quantification. The DPPH calibration curve was constructed analyzing DPPH ethanol solutions in the concentration range of 0.039-0.0156 mg/mL (λmax = 515 nm, regression equation: […] Results are expressed as means ± SE.

[7] = QRC stability after UV irradiation by EPR spectroscopy; format: physicochemical
Description: EPR measurements were carried out on 25 mg of QRC and BioQ-CPX at room temperature using a Bruker ELEXSYS E-500 spectrometer (Bruker, Billerica, MA, USA) operated at 9.8 GHz (X-band), operating at 6 mW microwave power and 0.15 mT modulation amplitude. To evaluate the effects of light exposure in the samples, UV-A/UV-B irradiator alternatively equipped with lamps of 25 W and 50 W (Light-Emitting Diode Philips, Amsterdam, The Netherlands) was used. Preliminarily, the paramagnetic center of QRC (pure drug) before and after 20 min of UV irradiation (50 W) was characterized. Afterwards, to evaluate the BioQ-CPX capability in preserving QRC from light exposure, aliquots of QRC and BioQ-CPX were irradiated by 25 W or 50 W lamps over time. […] UV irradiation was accomplished up to 60 min for all samples and EPR analysis was carried out every 5 min. Signals were normalized to the QRC mass contained in each sample. Data are reported as mean ± SE (n = 3).

[8] = cited from earlier work

Q: What does the source list for `O=c1c(O)c(-c2ccc(O)c(O)c2)oc2cc(O)cc(O)c12` [QRC, quercetin]?
A: solubility at 120 min ([1]; Citrate buffer pH 5.5/ACys plus DMSO 10% v/v): 29 µg/mL; solubility at 120 min ([1]; Citrate buffer pH 5.5/ACys plus β-CD 2% w/v): 83 µg/mL; solubility at 120 min ([1]; Citrate buffer pH 5.5/ACys plus β-CD 3% w/v): 103 µg/mL; solubility enhancement compared to water solubility ([1]; in presence of β-CD 2%): 42 fold; Appearance of QRC-liquid lipid mixture ([2]; Capryol PGMC): Opalescent; Appearance of QRC-liquid lipid mixture ([2]; Labrafil M 1944 CS): Opalescent; Appearance of QRC-liquid lipid mixture ([2]; Labrasol): Clear; Appearance of QRC-liquid lipid mixture ([2]; Maisine): Opalescent; Appearance of QRC-liquid lipid mixture ([2]; PEG-18 G/C): Slightly Opalescent; Appearance of QRC-liquid lipid mixture ([2]; Plurol): Opalescent; Korsmeyer-Peppas n [3]: 0.7915; Korsmeyer-Peppas with Tlag n [3]: 0.6509 ± 0.0127 and 0.6509; First-Order k ([3]; time in hours): 0.05179; Korsmeyer-Peppas k ([3]; time in hours): 0.0578; Korsmeyer-Peppas with Tlag k ([3]; time in hours): 0.0947; Korsmeyer-Peppas with Tlag: Tlag ([3]; time in hours): 1.440; Zero-Order k ([3]; time in hours): 0.02997; decrease of absorbance ratio at 360 nm ([4]; PBS pH 7.4 + 10% v/v DMSO): 42%; QRC stability over time ([4]; citrate buffer pH 5.5 + 10% v/v DMSO + 0.002% w/v ACys): improved; decrease of absorbance ratio at 360 nm ([4]; citrate buffer pH 5.5 + 10% v/v DMSO): 25%; Solubility [5]: 0.002 [52] mg/mL; %RCD compared with BioQ-CPX samples ([6]; corresponding to QRC content of the nanocomposite samples, after 1 and 2 h): same values of %RCD and trends; scavenging activity compared with BioQ-CPX samples ([6]; within 15 min incubation): lower; UV exposure time until Hpp plateau (antioxidant power exhausted) ([7]; 25 W or 50 W lamp, irradiation up to 60 min): 25 min; EPR amplitude Hpp normalized to mass ([7]; 20 min UV irradiation, 50 W lamp): 1.018 u.a.; EPR amplitude Hpp normalized to mass ([7]; not irradiated): 0.054 u.a.; logP [8]: 1.50
